Test results taken from patent US9499538B2, “Estrogen receptor modulators and uses thereof” (Seragon Pharmaceuticals, Inc., priority 2012, dated 2016).

Legend:
[1] = system: MCF-7 cells; experiment: Breast Cancer Cell Viability Assays (MCF-7, CellTiter-Glo); type: cell-based; details: 5 days' compound exposure; for IC50: Homo sapiens, MCF7, 120 h
In short: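 Percent viability, background-subtracted against untreated wells, was taken from CellTiter-Glo luminescence after 5 days' exposure of MCF-7 cells. Compounds were tested at eleven semilog concentrations, final 0.3–0.000003 μM, in RPMI containing 10% FBS.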

[2] = target: T1, ER-α in MCF-7 cells (Homo sapiens, UniProt P03372); experiment: Breast Cancer Cell ER-α In Cell Western Assay (SP1); type: cell-based; details: 4 or 24 hr post compound addition; for Emax: MCF7, SP1 antibody, read-out: ER-α In Cell Western Assay (SP1) Max Response; for DC50: SP1 antibody, read-out: ER-α In Cell Western Assay (SP1) IC50
T1 construct: endogenous in cells; host or cells: MCF-7
T1 sequence (P03372 1-595): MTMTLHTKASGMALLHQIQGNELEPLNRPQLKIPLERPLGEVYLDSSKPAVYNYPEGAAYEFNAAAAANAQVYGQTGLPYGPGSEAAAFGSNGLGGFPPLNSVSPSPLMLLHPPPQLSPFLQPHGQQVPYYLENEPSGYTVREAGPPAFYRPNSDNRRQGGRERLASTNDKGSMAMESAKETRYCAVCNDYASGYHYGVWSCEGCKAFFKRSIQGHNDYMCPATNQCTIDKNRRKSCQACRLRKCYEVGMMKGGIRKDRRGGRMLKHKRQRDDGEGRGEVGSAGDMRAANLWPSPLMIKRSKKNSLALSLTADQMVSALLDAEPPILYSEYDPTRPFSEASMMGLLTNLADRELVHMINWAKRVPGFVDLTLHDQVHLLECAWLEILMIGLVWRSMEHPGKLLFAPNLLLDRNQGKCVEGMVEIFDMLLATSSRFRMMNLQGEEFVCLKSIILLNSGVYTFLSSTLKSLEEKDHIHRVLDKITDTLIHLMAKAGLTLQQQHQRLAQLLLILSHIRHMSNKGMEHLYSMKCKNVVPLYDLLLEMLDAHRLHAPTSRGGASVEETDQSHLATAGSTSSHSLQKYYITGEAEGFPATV
In short: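 ER-α levels quantified by in-cell western: SP1 signal normalised to DRAQ5 DNA stain, relative to untreated cells (% ER). Compounds at 0.3–0.000003 μM final, 11-point semilog series, 4 or 24 h exposure of MCF-7 cells grown in charcoal-stripped serum.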

SMILES | MCF7 Viability Assay Max Response [1] | IC50 [1] [nM] | Emax [2] [%] | DC50 [2] [nM]
CC/C(=C(/c1ccc(/C=C/C(=O)Nc2nccs2)cc1)c1ccc2[nH]ncc2c1)c1ccc(F)cc1Cl [Example 185, (E)-3-(4-((E)-2-(2-Chloro-4-fluorophenyl)-1-(1H-indazol-5-yl)but-1-en-1-yl)phenyl)-N-(thiazol-2-yl)acrylamide] | ++ (++ = a single % value ≧ 40%) | ≤ 100 | ≥ 40 | ≤ 100
O=C(/C=C/c1ccc(/C(=C(\c2ccc(F)cc2Cl)C2CCC2)c2ccc3[nH]nc(F)c3c2)cc1)Nc1nccs1 [Example 186, (E)-3-(4-((E)-2-(2-Chloro-4-fluorophenyl)-2-cyclobutyl-1-(3-fluoro-1H-indazol-5-yl)vinyl)phenyl)-N-(thiazol-2-yl)acrylamide] | ++ (++ = a single % value ≧ 40%) | ≤ 100 | ≥ 40 | ≤ 100
O=C(/C=C/c1ccc(/C(=C(\c2ccc(F)cc2Cl)C2CCC2)c2ccc3nccn3c2)cc1)NCCO [Example 187, (E)-3-(4-((E)-2-(2-Chloro-4-fluorophenyl)-2-cyclobutyl-1-(imidazo[1,2-a]pyridin-6-yl)vinyl)phenyl)-N-(2-hydroxyethyl)acrylamide] | ++ (++ = a single % value ≧ 40%) | ≤ 100 | ≥ 40 | ≤ 100
O=C(/C=C/c1ccc(/C(=C(\c2ccccc2)C2CCC2)c2ccc3[nH]nc(F)c3c2)cc1)NCC(O)CO (centres unmarked) [Example 188, (E)-3-(4-((E)-2-Cyclobutyl-1-(3-fluoro-1H-indazol-5-yl)-2-phenylvinyl)phenyl)-N-(2,3-dihydroxypropyl)acrylamide] | ++ (++ = a single % value ≧ 40%) | ≤ 100 | ≥ 40 | ≤ 100
O=C(/C=C/c1ccc(/C(=C(\c2ccccc2)C2CCC2)c2ccc3[nH]nc(F)c3c2)cc1)NC(CO)CO [Example 189, (E)-3-(4-((E)-2-Cyclobutyl-1-(3-fluoro-1H-indazol-5-yl)-2-phenylvinyl)phenyl)-N-(1,3-dihydroxypropan-2-yl)acrylamide] | ++ (++ = a single % value ≧ 40%) | ≤ 100 | ≥ 40 | ≤ 100
CNC(=O)/C=C/c1ccc(/C(=C(\c2ccccc2)C2CCC2)c2ccc3[nH]nc(F)c3c2)cc1 [Example 190, (E)-3-(4-((E)-2-Cyclobutyl-1-(3-fluoro-1H-indazol-5-yl)-2-phenylvinyl)phenyl)-N-methylacrylamide] | ++ (++ = a single % value ≧ 40%) | ≤ 100 | ≥ 40 | ≤ 100
O=C(/C=C/c1ccc(/C(=C(\c2ccccc2)C2CCC2)c2ccc3[nH]nc(F)c3c2)cc1)NCCCl [Example 191, (E)-N-(2-Chloroethyl)-3-(4-((E)-2-cyclobutyl-1-(3-fluoro-1H-indazol-5-yl)-2-phenylvinyl)phenyl)acrylamide] | ++ (++ = a single % value ≧ 40%) | ≤ 100 | ≥ 40 | ≤ 100
OCC1CN=C(/C=C/c2ccc(/C(=C(\c3ccccc3)C3CCC3)c3ccc4[nH]nc(F)c4c3)cc2)O1 (centres unmarked) [Example 192, (2-((E)-4-((E)-2-Cyclobutyl-1-(3-fluoro-1H-indazol-5-yl)-2-phenylvinyl)styryl)-4,5-dihydrooxazol-5-yl)methanol] | ++ (++ = a single % value ≧ 40%) | ≤ 100 | ≥ 40 | ≤ 100
CS(=O)(=O)c1ccccc1/C(=C(\c1ccc(/C=C/C(=O)O)cc1)c1ccc2[nH]nc(F)c2c1)C1CC1 [Example 193, (E)-3-(4-((E)-2-Cyclopropyl-1-(3-fluoro-1H-indazol-5-yl)-2-(2-(methylsulfonyl)phenyl)vinyl)phenyl)acrylic acid] | ++ (++ = a single % value ≧ 40%) | ≤ 100 | ≥ 40 | ≤ 100
CS(=O)(=O)c1ccccc1/C(=C(\c1ccc(/C=C/C(=O)O)cc1)c1ccc2[nH]nc(F)c2c1)C1CCC1 [Example 194, (E)-3-(4-((E)-2-Cyclobutyl-1-(3-fluoro-1H-indazol-5-yl)-2-(2-(methylsulfonyl)phenyl)vinyl)phenyl)acrylic acid] | ++ (++ = a single % value ≧ 40%) | ≤ 100 | ≥ 40 | ≤ 100
Cc1cc(S(C)(=O)=O)ccc1/C(=C(\c1ccc(/C=C/C(=O)O)cc1)c1ccc2[nH]nc(F)c2c1)C1CCC1 [Example 195, (E)-3-(4-((E)-2-Cyclobutyl-1-(3-fluoro-1H-indazol-5-yl)-2-(2-methyl-4-(methylsulfonyl)phenyl)vinyl)phenyl)acrylic acid] | ++ (++ = a single % value ≧ 40%) | ≤ 100 | ≥ 40 | ≤ 100
CS(=O)(=O)c1ccc(/C(=C(\c2ccc(/C=C/C(=O)O)cc2)c2ccc3[nH]nc(F)c3c2)C2CCC2)c(Cl)c1 [Example 196, (E)-3-(4-((E)-2-(2-Chloro-4-(methylsulfonyl)phenyl)-2-cyclobutyl-1-(3-fluoro-1H-indazol-5-yl)vinyl)phenyl)acrylic acid] | ++ (++ = a single % value ≧ 40%) | ≤ 100 | ≥ 40 | ≤ 100
CS(=O)(=O)c1ccccc1/C(=C(\c1ccc(/C=C/C(=O)O)cc1)c1ccc2scnc2c1)C1CCC1 [Example 197, (E)-3-(4-((E)-1-(Benzo[d]thiazol-5-yl)-2-cyclobutyl-2-(2-(methylsulfonyl)phenyl)vinyl)phenyl)acrylic acid] | ++ (++ = a single % value ≧ 40%) | ≤ 100 | ≥ 40 | ≤ 100
Cc1cc([S+](C)[O-])ccc1/C(=C(\c1ccc(/C=C/C(=O)O)cc1)c1ccc2[nH]nc(F)c2c1)C1CCC1 (centres unmarked) [Example 198] | ++ (++ = a single % value ≧ 40%) | ≤ 100 | ≥ 40 | ≤ 100
CC/C(=C(/c1ccc(/C=C/C(=O)O)cc1)c1ccc2c(cnn2CCO)c1)c1ccc(F)cc1Cl [Example 199, (E)-3-(4-((E)-2-(2-Chloro-4-fluorophenyl)-1-(1-(2-hydroxyethyl)-1H-indazol-5-yl)but-1-en-1-yl)phenyl)acrylic acid] | ++ (++ = a single % value ≧ 40%) | ≤ 100 | ≥ 40 | ≤ 100
CC/C(=C(/c1ccc(/C=C/C(=O)O)cc1)c1ccc2nn(CCO)cc2c1)c1ccc(F)cc1Cl [Example 200, (E)-3-(4-((E)-2-(2-Chloro-4-fluorophenyl)-1-(2-(2-hydroxyethyl)-2H-indazol-5-yl)but-1-en-1-yl)phenyl)acrylic acid] | ++ (++ = a single % value ≧ 40%) | > 100 | ≥ 40 | ≤ 100
O=C(O)/C=C/c1ccc(/C(=C(\c2ccccc2)C2CCC2)c2ccc3c(c2)c(F)nn3CCO)cc1 [Example 201, (E)-3-(4-((E)-2-Cyclobutyl-1-(3-fluoro-1-(2-hydroxyethyl)-1H-indazol-5-yl)-2-phenylvinyl)phenyl)acrylic acid] | ++ (++ = a single % value ≧ 40%) | > 100 | ≥ 40 | ≤ 100
O=c1[nH]c(/C=C/c2ccc(/C(=C(\c3ccccc3)C3CCC3)c3ccc4[nH]nc(F)c4c3)cc2)no1 [Example 202, 3-((E)-4-((E)-2-Cyclobutyl-1-(3-fluoro-1H-indazol-5-yl)-2-phenylvinyl)styryl)-1,2,4-oxadiazol-5(4H)-one] | ++ (++ = a single % value ≧ 40%) | ≤ 100 | ≥ 40 | ≤ 100
NNC(=O)/C=C/c1ccc(/C(=C(\c2ccccc2)C2CCC2)c2ccc3[nH]nc(F)c3c2)cc1 [Example 203, (E)-3-(4-((E)-2-Cyclobutyl-1-(3-fluoro-1H-indazol-5-yl)-2-phenylvinyl)phenyl)acrylohydrazide] | ++ (++ = a single % value ≧ 40%) | ≤ 100 | ≥ 40 | ≤ 100
Fc1n[nH]c2ccc(/C(=C(/c3ccccc3)C3CCC3)c3ccc(/C=C/c4cccnc4)cc3)cc12 [Example 205, 5-((E)-2-Cyclobutyl-2-phenyl-1-(4-((E)-2-(pyridin-3-yl)vinyl)phenyl)vinyl)-3-fluoro-1H-indazole] | + (+ = a single % value < 40%) | > 100 | ≥ 40 | ≤ 100
